Data reported in patent publication US5719278A, “Tricyclic benzazepine vasopressin antagonists” (American Cyanamid Company, priority 1996, dated 1998).

Experiments:
Vasopressin V2 = Vasopressin V2 Antagonist Activity in Conscious Hydrated Rats; assay type: in vivo, rat; conditions: 10 mg/kg orally, N = 2, AVP 0.4 μg/kg intraperitoneally; for Osmolality (mOsm/kg): urine
Description: Vasopressin V2 Antagonist Activity in Conscious Hyrdated Rats
Conscious hydrated rats are treated with compounds under study from 0.1 to 100 mg/kg orally or vehicle. Two to four rats are used for each compound. One hour later, arginine vasopressin (AVP, antidiuretic hormone, ADH) dissolved in peanut oil is administered at 0.4 μg/kg intraperitoneally. Two rats in each test would not receive arginine vasopressin but only the vehicle (peanut oil) to serve as water-loading control. Twenty minutes later each rat is given 30 mL/kg of deionized water orally by gavage and is placed individually in a metabolic cage equipped with a funnel and a graduated glass cylinder to collect urine for four hours. Urine volume is measured and osmolality analyzed by use of a Fiske One-Ten osmometer (Fiske Assoc., Norwood, Mass. U.S.A.). Urinary sodium, potassium, and chloride are analyzed by use of ion-specific electrodes in a Beckman E3(Electrolyte 3) Analyzer.
In the following results, […] and decreased osmolality relative to AVP-control indicates activity.

[1] = biological target: T1, Rat Kidney Medullary V2 Receptors (Rattus norvegicus, UniProt Q00788); assay: Binding Assay to Rat Kidney Medullary V2 Receptors; conditions: Rat Kidney Medullary V2 Receptors (no asterisk)
T1 construct: Medullary tissues from rat kidneys are dissected out; from tissue; host or cells: rat kidney medulla membranes
T1 sequence (Q00788 whole entry): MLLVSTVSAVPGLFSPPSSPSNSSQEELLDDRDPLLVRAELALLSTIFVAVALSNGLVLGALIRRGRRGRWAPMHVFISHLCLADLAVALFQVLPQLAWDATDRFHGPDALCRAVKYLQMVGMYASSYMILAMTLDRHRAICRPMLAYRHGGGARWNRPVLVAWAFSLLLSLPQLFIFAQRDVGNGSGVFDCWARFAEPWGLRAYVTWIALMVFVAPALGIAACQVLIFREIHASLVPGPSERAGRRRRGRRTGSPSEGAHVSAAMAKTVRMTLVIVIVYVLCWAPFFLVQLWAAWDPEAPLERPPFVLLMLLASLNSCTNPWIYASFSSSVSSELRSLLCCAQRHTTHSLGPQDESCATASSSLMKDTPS
Description: Binding Assay to Rat Kidney Medullary V2 Receptors
Medullary tissues from rat kidneys are dissected out, cut into small pieces and let soak in a […] sodium chloride solution containing 1.0 mM EDTA with many changes of the liquid phase, until the solution is clear of blood. The tissue is homogenized in a 0.25M sucrose solution containing 1.0 mM EDTA and 0.1 mM PMSF using a Potter-Elvehjem homogenizer with a teflon pestle. The homogenate is filtered through several layers (4 layers) of cheese cloth. The filtrate is rehomogenized using a dounce homogenizer, with a tight fitting pestle. The final homogenate is contrifuged at 1500×g for 15 min. The nuclear pellet is discarded and the supernatant fluid recentrifuged at 40,000×g for 30 min. The resulting pellet formed contains a dark inner part with the exterior, slightly pink. The pink outer part is suspended in a small amount of 50.0 mM Tris.HCl buffer, pH 7.4. The protein content is determined by the Lowry's method (Lowry et al, J. Biol. Chem., 1953). The membrane suspension is stored at -70° C., in 50.0 mM Tris.HCl, containing 0.2% inactivated BSA and 0.1 mM PMSF in aliquots of 1.0 ml containing 10.0 mg protein per ml of suspension until use in subsequent binding experiments.
For binding experiments, the following is added in μl volume to wells of a 96 well format of a microtiter plate: 100.0 μl of 100.0 mM Tris.HCl buffer containing 0.2% heat inactivated BSA, 10.0 mM MgCl2 and a mixture of protease inhibitors: leupeptin, 1.0 mg %; aprotinin, 1.0 mg %; 1,10-phenanthroline, 2.0 mg %; trypsin inhibitor, 10.0 mg % and 0.1 mM PMSF, 20.0 μl of [^3 H]Arginine^8, vasopressin (S.A. 75.0 Ci/mmole) at 0.8 nM and the reaction initiated by the addition of 80.0 μl of tissue membranes (200.0 μg tissue protein). The plates are left undisturbed on the bench top for 120 min. to reach equilibrium. Non-specific binding is assessed in the presence of 1.0 μM of unlabeled ligand, added in 20 μl volume. For test compounds, these are solubilized in 50% dimethylsulfoxide (DMSO) and added in 20.0 μl volume to a final incubation volume of 200 μl. Upon completion of binding, the content of each well is filtered off, using a Brandel® cell Harvester (Gaithersburg, Md.). The radioactivity trapped on the filter disk by the ligand-receptor complex is assessed by liquid scintillation counting in a Packard LS Counter, with an efficiency of 65% for tritium. The data are analyzed for IC50 values by the LUNDON-2 program for competition (LUNDON SOFTWARE, Ohio).

IC50 [1] [µM] | SMILES | Urine Vol. (ml/4 hrs.) (Vasopressin V2) | Osmolality (mOsm/kg) (Vasopressin V2)
0.34 | O=C(Nc1ccc(C(=O)N2CCc3cn[nH]c3-c3sccc32)cc1)c1ccc(F)cc1Cl [Example 1, N-[4-[(4,5-Dihydropyrazolo[3,4-d]thieno[3,2-b]azepin-6(1H)-yl)carbonyl]phenyl]-2-chloro-4-fluorobenzamide] | 15.3 | 535
0.0016 | O=C(Nc1ccc(C(=O)N2CCc3cn[nH]c3-c3ncccc32)cc1)c1ccccc1-c1ccccc1 [Example 365, N-[4-[(4,5-Dihydropyrazolo[3,4-d]pyrido[3,2-b]azepin-6(1H)-yl)carbonyl]phenyl][1,1'-biphenyl]-2-carboxamide] | 2.6 | 251
0.03 | Cc1ccc(F)cc1C(=O)Nc1ccc(C(=O)N2CCc3c[nH]nc3-c3ncccc32)cc1 [Example 367, N-[4-[4(4,5-Dihydropyrazolo[3,4-d]pyrido[3,2-b]azepin-6(1H)-yl)carbonyl]phenyl]-5-fluoro-2-methylbenzamide] | 10 | 627
